One data set deals with Anas platyrhynchos. The note with it: for LD50: oral, mortality.
Another data set concerns Apis mellifera. The note with it: acute; duration: 48 hours; oral; unspecified; mortality.
The subject of another data set is Canidae. The note with it: chronic; duration: 1 years; oral; Dog Other; hematological.
The test system of another data set is Colinus virginianus. The note with it: for LD50: acute, oral, mortality.
A further data set relates to Coturnix japonica. The note with it: acute, oral, mortality.
A further data set concerns Daphnia magna. The note with it: chronic/long-term; duration: 21 days; reproduction.
The next data set relates to Oncorhynchus mykiss. The note with it: acute; duration: 96 hours; mortality.
The next data set deals with Tagia sp. The note with it: acute; duration: 14 days; mortality.

The record followed here is EPA's ToxValDB 9.5 (doi:10.2903/j.efsa.2008.125r).

Converted amounts (≈) assume the structure as drawn.

Broadly, the NOAEL is the highest dose or exposure tested at which no adverse effect was seen. For `CCCCCCCCCCCCC1=C(OC(C)=O)C(=O)c2ccccc2C1=O` [Acequinocyl], the LD50 is over 1940 mg/kg in the data set on Anas platyrhynchos (acute, unspecified); over 1340 mg/kg in the data set on Anas platyrhynchos (short-term, feed); over 100 µg/piece with Apis mellifera; over 159 mg/kg with Colinus virginianus (diet); over 300 mg/kg in the data set on Colinus virginianus; over 847 mg/kg in the data set with Coturnix japonica (diet). Besides, the LD50 in the data set on Coturnix japonica was over 1940 mg/kg; with Rattus norvegicus (acute, oral, mortality), over 4860 mg/kg. Also, the results for the NOEL in the data set with Anas platyrhynchos (reproductive) and with Colinus virginianus (reproduction developmental) were 7.48 mg/kg and 217 mg/kg-day, respectively. Besides, the NOAEL came out at 5 mg/kg-day in the data set with Canidae; 8 mg/kg-day with Rattus norvegicus (acute, oral, hematological); 2.3 mg/kg-day in the data set on Rattus norvegicus (chronic, duration: 2 years, clinical signs); 6.9 mg/kg-day in the data set on Rattus norvegicus (reproduction developmental, clinical signs). The NOEC in the data set with Daphnia magna came out at 0.00098 mg/L. Moreover, the LC50 in the data set on Oncorhynchus mykiss is 65 µg/mL (≈ 169 µM); in the data set on Tagia sp., over 1000 mg/kg. Further, the LEL with Typhlodromus pyri (acute, duration: 7 days, mortality) came out at 300 g/ha; in the data set with Typhlodromus pyri (not reported, reproduction), 300 g/ha.
